We go through three substances from patent US9533957B2, “Tetrazines and method of synthezising the same” (The Regents of the University of California, priority 2012, dated 2017).

The nature of data set [1]: Fluorescence turn-on spectroscopy of tetrazine-Alexa Fluor 488 with Ac4ManNCyc. It counts as physicochemical. The procedure:
Mannosamine-cyclopropene (Ac4ManNCyc) and tetrazine-Alexa-Fluor 488 stocks were prepared at 1 and 0.1 mM, respectively, in phosphate-buffered saline (PBS) pH 7.4. Fluorescence turn-on was measured using a Perkin Elmer LD-45 spectrometer, with the excitation wavelength set to 480/5 nm, and emission scanned over 490-620 nm (5-nm slit width) at a rate of 50 nm/min. Reaction conditions were 50 μM tetrazine-Alexa-Fluor 488 and 100 μM Ac4ManNCyc in PBS pH 7.4 buffer at room temperature.

For the next data set, the system named is LS174T cells. The data set is described as follows: Live-cell microscopy of metabolically incorporated cyclopropene sugar. It counts as cell-based, human. The note with it: 100 μM for 48 hours, then 10 μM tetrazine-Alexa Fluor 488 for 1 hour. The procedure: (§1) SKBR3 and LS 174T cells were grown in cDMEM media supplemented with 10% fetal bovine serum, 1% L-glutamine, 1% penicillin/streptomycin. Cells were incubated in 5.0% carbon dioxide, 95% humidity at 37° C. Generally, cells were grown in T-75 tissue culture flasks, seeded at densities between 500,000 and 750,000 cells per flask (cells were quantified with the Life Technologies Countess automated cell counter). The cells were trypsinized with TrypLE Express and resuspended in cDMEM. Cells were allowed to incubate for two days before supplementing with Ac4ManNCyc (N-cyclopropeneacetylmannosamine) or Ac4GlcNAz (N-azidoacetylglucosamine). The cells were then analyzed via confocal microscopy and flow cytometry as described below.
(§2) The SKBR3 and LS174T cells were incubated for two days in the presence of 100 μM of Ac4ManNCyc and/or 50 μM Ac4GlcNAz on a Lab-Tek chamber slide maintained in cDMEM medium. Treatment of cells with tunicamycin was done by preparing a 0.2 mg/mL stock in DMSO, which was diluted to a final working concentration of 1.2 μM tunicamycin in cDMEM (0.5% DMSO). Cells were washed 3× with phosphate-buffered saline (PBS) and incubated for 1 hour at 37° C. in 10 μM tetrazine-BODIPY TMR-X, 10 μM tetrazine-Alexa flour 488 and/or 15 μM dibenzocyclooctyne (DIBO)-Alexa Fluor 647 in cDMEM. The media was aspirated, and cells were washed twice with PBS before imaging. All photos were collected with an Olympus FV1000 confocal microscope using ImageJ 1.45j software package.
(§3) In order to determine if Ac4ManNCyc was incorporated effectively by cells, we incubated adherent human breast cancer (SKBR3) and colon cancer (LS174T) cell lines with 100 μM Ac4ManNCyc for 48 hours in cell media and serum. After incubation, cells were thoroughly washed and then reacted for 1 hour with 10 μM of fluorogenic Alexa Fluor 488 tetrazine. After a second wash, cells were imaged by confocal microscopy (Olympus FV1000). […] In order to ensure that the staining was due to glycan uptake of the probe, we also performed controls by exposing cells to 100 μM Ac4ManNCyc and inhibiting uptake by using glycosylation inhibitors (ie. tunicamycin and αBnGalNAc) or 20 mM of ManNAc as a competitive substrate.^[14] […] These experiments provide evidence that the staining patterns are reporting on glycosylation and uptake of the unnatural cyclopropene mannosamine. We also performed additional studies using flow cytometry to quantitate the relative uptake of sugars that corroborated the imaging data.

Data set [2] deals with SKBR3 cells. Described as above. The format is cell-based, human. The note with it: SKBR3; 100 μM for 48 hours, then 10 μM tetrazine-Alexa Fluor 488 for 1 hour. The procedure: as §1, §2, §3
The test system of data set [3] is LS174T human colon cancer cells. In words: Simultaneous imaging of two metabolically incorporated unnatural sugars and cross reactivity. It counts as cell-based. The procedure:
as §2
Finally, we tested whether or not we could simultaneously image two different metabolically incorporated unnatural sugar derivatives, Ac4ManNCyc and tetraacetylated N-azidoacetylgalactosamine (Ac4GalNAz). […] Recent experimental work has shown that alkenes and azides can be mutually orthogonal to each other, even when using highly strained trans-cyclooctenes. Additionally, the Houk group has calculated that methyl-cyclopropene handles, such as those we have previously developed, should be mutually orthogonal to azide cyclooctyne reactions. We incubated LS174T human colon cancer cells with 100 μM Ac4ManNCyc and Ac4GalNAz for 2 days. After incubation, we sequentially stained the cells with 10 μM tetrazine-Alexa Fluor 488 and 15 μM dibenzocyclooctyne (DIBO) 647. […] Similar results were obtained with the SKBR3 cell line. […] The ability to simultaneously label two different metabolically incorporated molecules using live-cell compatible inverse-Diels-Alder and Huisgen reactions expands the capabilities of bioorthogonal metabolic imaging.

The subject of data set [4] is SKBR3 cells. The data set is described as follows: Analysis of cell surface cyclopropenes by flow cytometry. It counts as cell-based, human. Conditions: followed by tetrazine imaging probe. The procedure:
After the incubating the adherent SKBR3 cells in 100 μM of Ac4ManNCyc (1.2 μM tunicamycin and/or 1 mM aBnGalNAc was used in experiments requiring glycosylation inhibitors) they were washed twice in PBS and then incubated in 10 μM of tetrazine-Alexa flour 488 for 1 hour at 37° C. Control cells were not exposed to Ac4ManNCyc and incubated in 10 μM of tetrazine-Alexa flour 488 for 1 hour at 37° C. Cells were then resuspended in 1-2 ml of cDMEM (5.0×10^5 to 1.0×10^6 per ml) using a rubber policeman. The cells were passed through a 25 gauge syringe to ameliorate excessive clumping, and subjected to analysis by flow cytometry using a 200 mW 488 nm blue solid state laser on the Partec Space Flow Cytometer (Partec).

A short description of data set [5]: Reaction rate determination of cyclopropenes with tetrazine 3. It counts as physicochemical. The procedure:
A tetrazine 3 stock solution was prepared in DMSO and used to prepare tetrazine solutions at 0.6 mM final concentration in 12% v/v DMSO in ddH2O. Reactions were initiated with excess cyclopropene at final concentrations of 6.0, 8.0, and 10.0 mM. The disappearance of the tetrazine absorption peak at 520 nm was tracked over the reaction timeframe by measuring the absorption spectra using a NanoDrop 2000c spectrophotometer (Thermo Scientific). Samples were placed in a quartz cuvette with 10-mm pathlength and stirred at the maximum speed setting of the instrument. The temperature was uncontrolled by the instrument for room temperature (20° C.) measurements, and set and equilibrated at 37° C. for the higher temperature experiments.
Absorption spectra were measured manually over time. Absorption peak signal was taken as the average of measurements at 519-521 nm. Baseline signal was determined as the sloping line connecting the measured background levels preceding and following the tetrazine peak (410-430 nm and 590-610 nm, respectively). Final peak intensity value was taken as the signal above the baseline. Reaction rates were obtained by fitting the exponential decays of tetrazine peak absorption intensity as a pseudo first order reaction. Nonlinear data fits were performed with GraphPad Prism. Tetrazine reactions with cyclopropene carbamate 5 were carried out at 20 and 37° C. (data points and corresponding fitted curves at 20° C. in FIG. 51, 37° C. in FIG. 2c). Tetrazine reactions with cyclopropene carboxamide 2 were done at 37° C. ([…]. A representative comparison fit is shown for cyclopropenes 5 and 2 at 8.0 mM concentration reacting at 37° C. with 0.6 mM tetrazine.

Data set [6] in a line: Stability of cyclopropene 5 by 1H NMR. It counts as physicochemical. The note with it: 37° C., over 24 hours. The procedure: Cyclopropene 5 was kept at 37° C. in D2O: DMSO-d6=10:1 and 1H NMR was taken over a period of 24 h at the following time points: 0.0, 0.5, 1.0, 1.5, 3.0, 6.0 and 24.0 h. By comparing the peak abundance of the cyclopropene alkene proton (6.21 ppm) at different time points, we determined the stability of cyclopropene 5 (Figure S2).

A short description of data set [7]: Storage stability of cyclopropene derivatives. The format is physicochemical. Conditions: stored at −20° C.
A further data set deals with 27mer RNA template. In words: Ligation of oligonucleotide probes with an RNA template. The format is biochemical. Conditions: ligating 13merF15′tet and 13mer3′cycp1. The procedure:
(§4) Tetrazine and cyclopropene-modified oligonucleotide probes were ligated in the presence of a DNA or RNA template at a 1:1:1 ratio. Reactions were done in varying solution and temperature conditions, as indicated. Main hybridization buffer was 50 mM MOPS at pH 7.5, 250 mM NaCl. Ligation reactions with a mismatched DNA template were performed in 5 mM MgCl2 in standard 1× Tris-borate buffer (purchased as 10× UltraPure TBE from Invitrogen: 1.0 M Tris pH 8.4, 0.9 M Boric acid, 10 mM EDTA).
Ligation reactions were done in standard 96 fluorescence well plates using SpectraMax GeminiXS (Molecular Devices). Temperature was set by the instrument. Where indicated by standard deviations, experiments were performed multiple times. In order to avoid any secondary structure artifacts, DNA or RNA template with added tetrazine probe was first heated to 90° C. and crash-cooled on ice for 2 min right before the experiment. Each well was filled with a total of 100 μL reaction solution, and reactions were timed from the addition of the cyclopropene probe as the last step before starting the measurements. […] Buffer-only well intensities were subtracted from the measured raw data before analysis. Data was analyzed using GraphPad Prism 6.0 by applying a nonlinear fit of a one-phase association to each curve where fluorescein signal during reaction was measured.

Data set [8] has as its system 27mer DNA template. In words: Melting temperatures of DNA template with probes and ligation products. Conditions: hybridization target against 27mer template; 250 mM NaCl in buffer; 1 μM each oligonucleotide. The format is physicochemical. The procedure:
Melting temperature of probes and ligation products in hybridization buffer (50 mM MOPS pH 7.5, 250 mM NaCl) were measured using a Beckman-Coulter DU 640 spectrophotometer equipped with a high performance temperature controller and micro auto six-cell holder. Samples at 1 μM concentration of each oligonucleotide were heated to 90° C. and slowly cooled to RT over 1-1.5 h before the measurements. Melting temperature values were obtained by cooling samples from 90° C. to 20° C. at the rate of 1° C./min and measuring at 1° C. increments with each read averaged over 1 s.

The test system of data set [9] is 27mer DNA template. In words: Template-driven ligation of tetrazine and cyclopropene oligonucleotide probes (fluorescence). It counts as biochemical. The procedure: as §4
Ligation reactions were done in standard 96 fluorescence well plates using SpectraMax GeminiXS (Molecular Devices). Temperature was set by the instrument. Where indicated by standard deviations, experiments were performed multiple times. In order to avoid any secondary structure artifacts, DNA or RNA template with added tetrazine probe was first heated to 90° C. and crash-cooled on ice for 2 min right before the experiment. Each well was filled with a total of 100 μL reaction solution, and reactions were timed from the addition of the cyclopropene probe as the last step before starting the measurements. Wells were scanned every 20-60 s depending on the speed of the reactions by using 485 nm excitation and 538 nm emission with the cutoff set at 495 nm. Control reactions without template were done in parallel each time. Buffer-only well intensities were subtracted from the measured raw data before analysis. Data was analyzed using GraphPad Prism 6.0 by applying a nonlinear fit of a one-phase association to each curve where fluorescein signal during reaction was measured.

The subject of data set [10] is singly-mismatched 27mer template. In words: Single nucleotide mismatch discrimination in probe ligation. The format is biochemical. Conditions: 5 mM MgCl2 in Tris-borate buffer at 37° C.; reaction with 13merF15′tet. The procedure: as §4
A single nucleotide mismatch effect was determined on reaction completion in discriminating conditions from FIG. 2C and is depicted in Figure S8. TBE 1× buffer (pH 8.4, Invitrogen) with 5 mM MgCl2 solution at 37° C. was used for incubation of 13mer5′tet with 13mer3′cycp1 in the presence of a fully matched template, or a sample containing a fully matched template and a single mismatched template, and a sample with only a singly-mismatched template. All DNA concentrations were kept at 1 μM. Fluorescence measurements were taken using a Perkin Elmer LD-45 spectrophotometer, as described above, with the samples in the quartz cuvettes warmed with attached circulating water bath. Initial timepoints were taken of prewarmed samples prior to template addition, and subtracted from the final intensity values (Figure S8).

{cycp1} = methylcyclopropene carbamate coupled through the 3' amine; {3AmMO} = amino modifier (IDT nomenclature)

As to “1,3,4,6-Tetra-O-acety-N-cyclopropene tag-D-mannosamine [Ac4ManNCyc]”, the “fluorogenic response of quenched tetrazine probe” value in data set [1] was “elicits fluorogenic responses”. Moreover, the “cell surface staining by confocal microscopy” value in the data set on LS174T cells and in the data set on SKBR3 cells [2] was “bright surface staining” each time. The “cell surface staining after co-incubation of both sugars” value in data set [3] (100 μM, 2 days, stained with 10 μM tetrazine-Alexa Fluor 488 and 15 μM DIBO 647) is reported as “cell surface staining in both the fluorescent channels”. The “cross reactivity: surface staining with DIBO 647” value in data set [3] (cells incubated with only this sugar) is “minimal surface staining”. Further, the “fluorescence intensity by flow cytometry compared to controls” value in the data set with SKBR3 cells [4] is “increased fluorescence intensity”.
On to “2-methyl-cyclopropene carbamate [cyclopropene 5]”, for which the rate constant in [5] (20° C., 12% DMSO by volume) came to 7 ± 1 M⁻¹ s⁻¹. In addition, in [5] (37° C.), the “improvement of rate constant compared to cyclopropene carboxamide 2” value was “approximately two orders of magnitude”. Besides, the “second order rate constant” value in [5] (37° C., water/DMSO (12% DMSO by volume)) turned out to be 13 ± 2 M⁻¹ s⁻¹. Moreover, the “degradation in aqueous solutions” value in data set [6] was “no significant degradation”. Moreover, the “storage stability at −20° C.” value in [7] was “without degradation”.
As for “13mer3′cycp1: 5′-ATT CAA CAC TAC C/3AmMO/-cyclopropene-3′ (SEQ ID NO:5), methyl-cyclopropene carbamate cycp1 (DNA ATTCAACACTACC; DNA, 3' {3AmMO}-{cycp1}, backbone not given here)”, the “ligation with RNA template compared with DNA template” value in the data set on 27mer RNA template is listed as “equally effective”. In addition, the “Melting T” value in the data set on 27mer DNA template [8] is 50.4 °C. Moreover, in the data set on 27mer DNA template [9] (disappearance of 13merF15′tet and appearance of product), the “reaction yield by LC/MS” value was “approximately 92%”. Further, the “effective molarity of the intramolecular reaction” value in the data set with 27mer DNA template [9] (estimated assuming the reaction is limited by ligation) is 53 mM. The “observed first order rate constant of DNA-templated reaction” value with 27mer DNA template [9] (reaction with 13merF15′tet in the presence of DNA template) was 0.019 ± 0.001 s⁻¹. In addition, the “time at which the fluorescence signal plateaus” value in the data set with 27mer DNA template [9] (reaction with 13merF15′tet, 1 μM 27mer template) is reported as “about 200 s”. In data set [10], the “effect of single mismatch (T to G) in template on reaction rate” value was “only a moderate difference”.
